Where two headings read alike, the source gives them in different places.
Tested on: HBMEC monolayer
[1] = matrix ASFE extract 24 µg/mL, 2 h incubation, n.d = not detected in lower compartment
[2] = matrix ASFE extract 24 µg/mL, 4 h incubation, n.d = not detected in lower compartment

Procedure: The cell line HBMEC was used as a simplified in vitro model of the BBB endothelium. […] Endothelial cell cultures were maintained at 37 °C in a humid atmosphere enriched with 5% CO2. In our studies, HBMEC were used between passage 25 and 29. For experiments, HBMECs were seeded using a volume of 200 µL at a density of 8 × 10^4 cells/mL in rat tail collagen-I (100 µg/mL) coated 96-well plates (for viability assay) or 500 µL at a density of 1.6 × 10^5 cells/mL in rat tail collagen-I (100 µg/mL) coated semi-permeable membranes in transwell inserts (0.4 µm pore, Corning Costar Corp., USA; for BBB integrity and transport assays) for 12-well plates. The incubation timepoints were assay dependent.
For the transendothelial transport assays, HBMEC were seeded on transwell inserts as described above and are schematically depicted in Figure 1a. After seeding, the media were changed every two days. Four days post-seeding, the HBMEC monolayer was formed, and the transport studies were performed. […] Vupper and Vlower is the upper and lower compartment volume (0.5 and 1.5 mL, respectively). The culture inserts were used for the subsequent integrity permeability studies.

Compound: C=C(C)C1CCC2(C)OC2C1 (stereo not shown) [Limonene Epoxide]
- Te % (SEM) 2 h: 19.5 (1.2) %
- Te % (SEM) 4 h: 42.4 (3.2) %

Compound: CC[C@H](/C=C/[C@@H](C)[C@H]1CC[C@H]2[C@@H]3CC=C4C[C@@H](O)CC[C@]4(C)[C@H]3CC[C@]12C)C(C)C [Stigmasterol]
- Te % (SEM) 2 h (human): 40.4 (2.2) %
- Te % (SEM) 4 h (human): 64.5 (0.4) %

Compound: C=C(C)[C@@H]1CCC2=CC(=O)C[C@@H](C)[C@]2(C)C1 [Nootkatone]
- Te % (SEM) 2 h (human): 29.9 (0.9) %
- Te % (SEM) 4 h (human): 43.0 (3.4) %

Compound: CC(=O)OC(C)(C)[C@@H]1CC[C@@]2(C)CO[C@]3(C)C=CO[C@]23C1 [Phytuberin]
- Te % (SEM) 2 h: 33.4 (1.5) %
- Te % (SEM) 4 h: 79.6 (2.2) %

Compound: Cc1ccc(C(C)C)c(O)c1 [Thymol]
- Te % (SEM) 2 h (human, 2 h, 40 µg/mL): 34.1 (0.1) %
- Te % (SEM) 4 h (human, 4 h, 40 µg/mL): 47.0 (1.7) %

Compound: γ-silenene
- Te % (SEM) 2 h: 52.8 (3.8) %
- Te % (SEM) 4 h: 53.8 (2.8) %

Compound: Phytol
- Te % (SEM) 2 h (human): 15.6 (0.3) %
- Te % (SEM) 4 h (human): 43.5 (3.7) %

Compound: CC1(C)C2CCC1(C)C(O)C2 (stereo not shown) [Borneol]
- Te % (SEM) 2 h (human, 2 h, 40 µg/mL): 8.5 (0.3) %
- Te % (SEM) 4 h (human, 4 h, 40 µg/mL): 35.2 (0.1) %

Compound: C/C=C/C(=O)C1=C(C)CC(O)CC1(C)C (stereo not drawn) [3-hydroxy-β-damascone]
- Te % (SEM) 2 h: 84.5 (3.2) %

Compound: Caffeoylshikimic acid
- Te % (SEM) 2 h: 14.3 (0.8) %
- Te % (SEM) 4 h: 29.0 (0.1) %

Compound: O=Cc1ccc(O)c(O)c1 [Protocatechuic aldehyde]
- Te % (SEM) 2 h [1]: 20.3 (1.5) %
- Te % (SEM) 4 h [2]: 78.2 (5.7) %

Compound: O=C(O)/C=C/c1ccc(O)c(O)c1 [Caffeic acid]
- Te % (SEM) 2 h (human, 2 h, 24 µg/mL): 55.4 (3.7) %
- Te % (SEM) 2 h (human, 2 h, 30 µg/mL): 34.8 (1.2) %
- Te % (SEM) 4 h (human, 4 h, 24 µg/mL): 68.3(0.3) %
- Te % (SEM) 4 h (human, 4 h, 30 µg/mL): 50.1 (3.4) %

Compound: O=C(O)c1ccc(O)cc1 [p-Salycilic acid]
- Te % (SEM) 2 h: 25.5 (1.8) %
- Te % (SEM) 4 h: 43.4 (1.3) %

Compound: CC(C)[C@H](C)CC[C@@H](C)[C@H]1CC[C@H]2[C@@H]3CC=C4C[C@@H](O)CC[C@]4(C)[C@H]3CC[C@]12C [Campesterol]
- Te % (SEM) 2 h (human): 68.7 (2.2) %

Compound: C=C1/C=C/[C@H](C(C)C)CC/C(C)=C/CC1 [Germacrene D]
- Te % (SEM) 2 h: 3.2 (0.2) %
- Te % (SEM) 4 h: 6.6 (0.4) %

Compound: CCC(O)C1CC(C)C2(CC(=O)C3(C)C4=C(CCC32C)C2(C)CCC(=O)C(C)(CO)C2CC4)O1 [Triterpene, (23S,24S)-17,23-Epoxy-24,29-dihydroxy-27-norlanost-8-ene-3,15-dione]
- Te % (SEM) 2 h [1]: 30.4 (1.7) %
- Te % (SEM) 4 h [2]: 82.9 (5.3) %

Compound: Tocospiro B
- Te % (SEM) 2 h: 1.9 (0.1) %
- Te % (SEM) 4 h: 26.2 (1.0) %

Compound: C[C@@H]1CC[C@@H]2[C@@H]1[C@H]1[C@@H](CC[C@@]2(C)O)C1(C)C [(-)-Globulol]
- Te % (SEM) 2 h: 44.1 (3.6) %

Compound: C=C(C)[C@H]1CC=C(C)CC1 [Limonene]
- Te % (SEM) 2 h: 33.6 (2.3) %
- Te % (SEM) 4 h: 59.3 (2.9) %

Compound: C=CC1(C)CCC(=C(C)C)CC1C(=C)C (stereo not shown) [γ-Elemene]
- Te % (SEM) 2 h: 30.1 (0.1) %
- Te % (SEM) 4 h: 41.8 (1.7) %

Compound: O=C(O)c1ccc(O)c(O)c1 [Protocatechuic acid]
- Te % (SEM) 2 h [1]: 45.1 (3.8) %
- Te % (SEM) 4 h [2]: 71.7 (3.2) %

Compound: C[C@@H]1O[C@@H](OC[C@H]2O[C@@H](Oc3c(-c4ccc(O)c(O)c4)oc4cc(O)cc(O)c4c3=O)[C@H](O)[C@@H](O)[C@@H]2O)[C@H](O)[C@H](O)[C@H]1O [Rutin]
- Detection / transport to brain side of HBMEC-BBB model: poor transport trough the BBB

Compound: O=C(/C=C/c1ccc(O)c(O)c1)OC1[C@H](O)CC(O)(C(=O)O)C[C@H]1O (stereo partly shown) [Caffeoylquinic acid]
- Te % (SEM) 2 h: 15.7 (0.4) %
- Te % (SEM) 4 h: 74.8 (2.9) %

Compound: C[C@H]1[C@H](C)CC[C@]2(C(=O)O)CC[C@]3(C)C(=CC[C@@H]4[C@@]5(C)C[C@@H](O)[C@H](O)C(C)(C)[C@@H]5CC[C@]43C)[C@H]12 [Corosolic acid]
- Te % (SEM) 2 h [1]: 33.4 (1.9) %
- Te % (SEM) 4 h [2]: 39.6 (1.9) %

From PMC9820279 (International Journal of Molecular Sciences, 2022)
